Source: the NIST ThermoML archive (doi:10.1016/j.jct.2006.04.007)
Values joined by “and” are separate entries in the source; they are usually repeats but may differ in a detail not shown here. Equal entries are not always repeated.

Experiment: mn = molality of the nth substance listed, in mol/kg
Conditions: 350 kPa, Liquid; for apparent molar heat capacity: Extra sensitive DSC

CC(=O)N[C@@H](C=O)[C@@H](O)[C@H](O)[C@H](O)CO [N-acetyl-D-glucosamine] + O
Conditions	apparent molar heat capacity	mass density
318.15 K, m1 = 0.1999	–	1004.1 kg/m3
318.15 K, m1 = 0.3018	–	1010.81 kg/m3
318.15 K, m1 = 0.5001	–	1023.43 kg/m3
318.15 K, m1 = 0.7003	–	1035.3 kg/m3
318.15 K, m1 = 0.958	–	1051.87 kg/m3
323.15 K, m1 = 0.0096	516 J/K/mol	–
323.15 K, m1 = 0.0207	501 J/K/mol	–
323.15 K, m1 = 0.03	483 J/K/mol and 488 J/K/mol	–
323.15 K, m1 = 0.07	493.4 J/K/mol	–
323.15 K, m1 = 0.1502	483.4 J/K/mol	–
323.15 K, m1 = 0.1999	495.3 J/K/mol	–
323.15 K, m1 = 0.3018	498.2 J/K/mol	–
323.15 K, m1 = 0.5001	502.3 J/K/mol	–
323.15 K, m1 = 0.7003	503 J/K/mol	–
323.15 K, m1 = 0.958	484.1 J/K/mol	–
328.15 K, m1 = 0.0096	524 J/K/mol	–
328.15 K, m1 = 0.01	–	986.41 kg/m3
328.15 K, m1 = 0.02	–	987.4 kg/m3
328.15 K, m1 = 0.0207	509 J/K/mol	–
328.15 K, m1 = 0.03	490 J/K/mol and 497 J/K/mol	987.95 kg/m3 and 987.87 kg/m3
328.15 K, m1 = 0.07	501.3 J/K/mol	990.79 kg/m3
328.15 K, m1 = 0.1502	492.7 J/K/mol	997.12 kg/m3
328.15 K, m1 = 0.1999	503.9 J/K/mol	999.48 kg/m3
328.15 K, m1 = 0.3018	506.8 J/K/mol	1006.12 kg/m3
328.15 K, m1 = 0.5001	510.8 J/K/mol	1018.64 kg/m3
328.15 K, m1 = 0.7003	511.5 J/K/mol	1030.41 kg/m3
328.15 K, m1 = 0.958	492.8 J/K/mol	1046.86 kg/m3
333.15 K, m1 = 0.0096	532 J/K/mol	–
333.15 K, m1 = 0.0207	517 J/K/mol	–
333.15 K, m1 = 0.03	498 J/K/mol and 506 J/K/mol	–
333.15 K, m1 = 0.07	509.2 J/K/mol	–
333.15 K, m1 = 0.1502	501.5 J/K/mol	–
333.15 K, m1 = 0.1999	512.1 J/K/mol	–
333.15 K, m1 = 0.3018	514.9 J/K/mol	–
333.15 K, m1 = 0.5001	518.8 J/K/mol	–
333.15 K, m1 = 0.7003	519.6 J/K/mol	–
333.15 K, m1 = 0.958	501.1 J/K/mol	–
338.15 K, m1 = 0.0096	540 J/K/mol	–
338.15 K, m1 = 0.0207	524 J/K/mol	–
338.15 K, m1 = 0.03	505 J/K/mol and 514 J/K/mol	–
338.15 K, m1 = 0.07	517 J/K/mol	–
338.15 K, m1 = 0.1502	510.1 J/K/mol	–
338.15 K, m1 = 0.1999	520 J/K/mol	–
338.15 K, m1 = 0.3018	522.8 J/K/mol	–
338.15 K, m1 = 0.5001	526.6 J/K/mol	–
338.15 K, m1 = 0.7003	527.5 J/K/mol	–
338.15 K, m1 = 0.958	509.1 J/K/mol	–
343.15 K, m1 = 0.0096	547 J/K/mol	–
343.15 K, m1 = 0.0207	532 J/K/mol	–
343.15 K, m1 = 0.03	511 J/K/mol and 523 J/K/mol	–
343.15 K, m1 = 0.07	524.3 J/K/mol	–
343.15 K, m1 = 0.1502	518.1 J/K/mol	–
343.15 K, m1 = 0.1999	527.4 J/K/mol	–
343.15 K, m1 = 0.3018	530.1 J/K/mol	–
343.15 K, m1 = 0.5001	533.9 J/K/mol	–
343.15 K, m1 = 0.7003	535 J/K/mol	–
343.15 K, m1 = 0.958	516.5 J/K/mol	–
348.15 K, m1 = 0.0096	554 J/K/mol	–
348.15 K, m1 = 0.01	–	975.69 kg/m3
348.15 K, m1 = 0.02	–	976.44 kg/m3
348.15 K, m1 = 0.0207	538 J/K/mol	–
348.15 K, m1 = 0.03	518 J/K/mol and 531 J/K/mol	977.15 kg/m3 and 977.05 kg/m3
348.15 K, m1 = 0.07	531.6 J/K/mol	979.84 kg/m3
348.15 K, m1 = 0.1502	525.9 J/K/mol	986.13 kg/m3
348.15 K, m1 = 0.1999	534.7 J/K/mol	988.48 kg/m3
348.15 K, m1 = 0.3018	537.2 J/K/mol	995.03 kg/m3
348.15 K, m1 = 0.5001	540.8 J/K/mol	1007.4 kg/m3
348.15 K, m1 = 0.7003	542.3 J/K/mol	1019.03 kg/m3
348.15 K, m1 = 0.958	523.5 J/K/mol	1035.29 kg/m3
353.15 K, m1 = 0.0096	561 J/K/mol	–
353.15 K, m1 = 0.0207	545 J/K/mol	–
353.15 K, m1 = 0.03	524 J/K/mol and 539 J/K/mol	–
353.15 K, m1 = 0.07	538.7 J/K/mol	–
353.15 K, m1 = 0.1502	533.4 J/K/mol	–
353.15 K, m1 = 0.1999	541.6 J/K/mol	–
353.15 K, m1 = 0.3018	544.1 J/K/mol	–
353.15 K, m1 = 0.5001	547.6 J/K/mol	–
353.15 K, m1 = 0.7003	549.6 J/K/mol	–
353.15 K, m1 = 0.958	530.3 J/K/mol	–
358.15 K, m1 = 0.0096	568 J/K/mol	–
358.15 K, m1 = 0.01	–	969.57 kg/m3
358.15 K, m1 = 0.02	–	969.97 kg/m3
358.15 K, m1 = 0.0207	552 J/K/mol	–
358.15 K, m1 = 0.03	529 J/K/mol and 547 J/K/mol	970.91 kg/m3 and 970.89 kg/m3
358.15 K, m1 = 0.07	545.8 J/K/mol	973.66 kg/m3
358.15 K, m1 = 0.1502	540.9 J/K/mol	979.94 kg/m3
358.15 K, m1 = 0.1999	548.3 J/K/mol	982.31 kg/m3
358.15 K, m1 = 0.3018	550.7 J/K/mol	988.83 kg/m3
358.15 K, m1 = 0.5001	554.1 J/K/mol	1000.87 kg/m3
358.15 K, m1 = 0.7003	556.9 J/K/mol	1012.6 kg/m3
358.15 K, m1 = 0.958	536.9 J/K/mol	1028.69 kg/m3
363.15 K, m1 = 0.0096	574 J/K/mol	–
363.15 K, m1 = 0.0207	558 J/K/mol	–
363.15 K, m1 = 0.03	533 J/K/mol and 553 J/K/mol	–
363.15 K, m1 = 0.07	551.5 J/K/mol	–
363.15 K, m1 = 0.1502	547.3 J/K/mol	–
363.15 K, m1 = 0.1999	554.3 J/K/mol	–
363.15 K, m1 = 0.3018	556.6 J/K/mol	–
363.15 K, m1 = 0.5001	559.9 J/K/mol	–
363.15 K, m1 = 0.7003	564.4 J/K/mol	–
363.15 K, m1 = 0.958	542.9 J/K/mol	–
368.15 K, m1 = 0.01	–	963.46 kg/m3
368.15 K, m1 = 0.02	–	963.16 kg/m3
368.15 K, m1 = 0.03	–	964.01 kg/m3 and 964.02 kg/m3
368.15 K, m1 = 0.07	–	966.84 kg/m3
368.15 K, m1 = 0.1502	–	973.05 kg/m3
368.15 K, m1 = 0.1999	–	975.42 kg/m3
368.15 K, m1 = 0.3018	–	981.89 kg/m3
368.15 K, m1 = 0.5001	–	994.17 kg/m3
368.15 K, m1 = 0.7003	–	1005.68 kg/m3
368.15 K, m1 = 0.958	–	1021.82 kg/m3
